Assay results: patent US6169181A, “Compounds useful to treat retroviral infections” (Pharmacia & Upjohn Company, priority 1998, dated 2001)
Where “and” joins values, the source holds several entries; their conditions need not be identical. Equal entries are not always repeated. Structures can show the parent of a compound that is named as a salt. Where two headings read alike, the source gives them in different places.

How the values were obtained:
HIV-1 protease [1] = target: T1, HIV-1 protease (Human immunodeficiency virus type 1 group M subtype B, UniProt P04585); assay: biochemical; conditions: read-out: Protease % Inhib
Summary of the method: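 A substrate biotinylated at the N-terminal arginine and FITC-labelled at the C-terminal lysine was incubated with HIV-1 protease (10 μl of 0.1 μM) and compound for 1 h in the dark at room temperature. Buffer was 0.1 M sodium acetate pH 5.5, 1.0 M NaCl, 0.05% NP-40. Labelled product was separated from substrate using streptavidin beads and filtration, and the fluorescence gave percent inhibition.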

HIV-1 protease [2] = target: T1, HIV-1 protease; assay: biochemical; conditions: read-out: HIV Protease FITC Assay Ki
Summary of the method: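 Biotinylated, FITC-labelled peptide substrate cleaved in 0.1 M sodium acetate pH 5.5, 1.0 M NaCl, 0.05% NP-40, room temperature. Filtered labelled product read by fluorescence; nonlinear least-squares fit.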

| Structure (SMILES) | inhibition at 0.123 µM (HIV-1 protease [1]; Table I, Dose 0.123 μM) [%] | inhibition at 0.37 µM (HIV-1 protease [1]; Table I, Dose 0.370 μM) [%] | inhibition at 1.1 µM (HIV-1 protease [1]; Table I, Dose 1.100 μM) [%] | inhibition at 3.3 µM (HIV-1 protease [1]; Table I, Dose 3.300 μM) [%] | inhibition at 10 µM (HIV-1 protease [1]; Table I, Dose 10.000 μM) [%] | inhibition at 30 µM (HIV-1 protease [1]; Table I, Dose 30.000 μM) [%] | Ki (HIV-1 protease [2]; Table I) | inhibition at 0.123 µM (HIV-1 protease [1]) [%] | inhibition at 0.37 µM (HIV-1 protease [1]) [%] | inhibition at 1.1 µM (HIV-1 protease [1]) [%] | inhibition at 3.3 µM (HIV-1 protease [1]) [%] | inhibition at 10 µM (HIV-1 protease [1]) [%] | inhibition at 30 µM (HIV-1 protease [1]) [%] | Ki (HIV-1 protease [2]) [nM] | inhibition at 100 µM (HIV-1 protease [1]; Table I, Dose 100.000 μM) [%] | inhibition at 3.39 µM (HIV-1 protease [1]; Table I, Dose 3.390 μM) [%] |
| --- | --- | --- | --- | --- | --- | --- | --- | --- | --- | --- | --- | --- | --- | --- | --- | --- |
| CCCC1(CCc2ccccc2)CC(O)=C(C(c2cccc(NS(=O)(=O)c3cn(C)cn3)c2)C2CC2)C(=O)O1 (stereo not drawn) [Example 61] | 86.8 | 95.5 | 103 | 103 | 106 | 104 | 0.71 nM | – | – | – | – | – | – | – | – | – |
| Cn1cnc(S(=O)(=O)Nc2cccc(C(C3=C(O)CC(CCc4ccccc4)(CCc4ccccc4)OC3=O)C3CC3)c2)c1 (stereo not drawn) [Example 62] | 76.2 | 85.2 | 85.3 | 78.7 | 79.7 | 79.4 | 0.8 nM | – | – | – | – | – | – | – | – | – |
| CCCC1(CCc2ccccc2)CC(O)=C(C(CC)c2cccc(NS(=O)(=O)c3ccc(F)cc3)c2)C(=O)O1 (stereo not drawn) [Example 93A, 4-Fluoro-N-[3-[1-(4-hydroxy-2-oxo-6-phenethyl-6-propyl-5,6-dihydro-2H-pyran-3-yl)-propyl]-phenyl]-benzenesulfonamide] | – | – | – | – | – | – | – | 59.5 | 90.4 | 104 | 109 | 109 | 96.6 | 6.06 | – | – |
| O=c1oc(C(CC2CC2)CC2CC2)cc(O)c1C(c1cccc(NS(=O)(=O)c2ccc(F)cc2)c1)C1CC1 (stereo not drawn) [Example 94, N-(3-{Cyclopropyl-[6-(2-cyclopropyl-1-cyclopropylmethyl-ethyl)-4-hydroxy-2-oxo-2H-pyran-3-yl]-methyl}-phenyl)-4-fluoro-benzenesulfonamide] | – | – | – | – | – | – | – | 75.8 | 107 | 107 | 105 | 109 | 111 | 16.4 | – | – |
| Cn1cnc(S(=O)(=O)Nc2cccc(C(c3c(O)cc(C(CC4CC4)CC4CC4)oc3=O)C3CC3)c2)c1 (stereo not drawn) [Example 97, N-(3-{Cyclopropyl-[6-(2-cyclopropyl-1-cyclopropylmethyl-ethyl)-4-hydroxy-2-oxo-2H-pyran-3-yl]-methyl}-phenyl)-1-methyl-1H-imidazole-4-sulfonamide] | – | – | – | – | – | – | – | 105 | 106 | 110 | 107 | 116 | 115 | 1 | – | – |
| O=c1oc(C(CC2CC2)CC2CC2)cc(O)c1C(c1cccc(NS(=O)(=O)c2ccccn2)c1)C1CC1 (stereo not drawn) [Example 99, N-(3-{Cyclopropyl-[6-(2-cyclopropyl-1-cyclopropylmethyl-ethyl)-4-hydroxy-2-oxo-2H-pyran-3-yl]-methyl}-phenyl)-2-pyridine-sulfonamide] | 85.7 | 102 | 108 | 100 | 107 | 103 | 0.66 nM | – | – | – | – | – | – | – | – | – |
| Cn1ccnc1S(=O)(=O)Nc1cccc(C(c2c(O)cc(C(CC3CC3)CC3CC3)oc2=O)C2CC2)c1 (stereo not drawn) [Example 100, N-(3-{Cyclopropyl-[6-(2-cyclopropyl-1-cyclopropylmethyl-ethyl)-4-hydroxy-2-oxo-2H-pyran-3-yl]-methyl}-phenyl)-1-methyl-1H-imidazole-2-sulfonamide] | 103 | 101 | 91 | 96.5 | – | 101 | 0.73 nM | – | – | – | – | – | – | – | 101 | – |
| O=c1oc(C(CC2CC2)CC2CC2)cc(O)c1C(c1cccc(NS(=O)(=O)c2nc3ccccc3[nH]2)c1)C1CC1 (stereo not drawn) [Example 101, N-(3-{Cyclopropyl-[6-(2-cyclopropyl-1-cyclopropylmethyl-ethyl)-4-hydroxy-2-oxo-2H-pyran-3-yl]-methyl}-phenyl)-1H-benzo-imidazole-2-sulfonamide] | 70.2 | 84 | 93.3 | 97 | 102 | 97.3 | 0.66 nM | – | – | – | – | – | – | – | – | – |
| O=c1oc(C(CC2CC2)CC2CC2)cc(O)c1C(c1cccc(NS(=O)(=O)c2ncc[nH]2)c1)C1CC1 (stereo not drawn) [Example 102, N-(3-{Cyclopropyl-[6-(2-cyclopropyl-1-cyclopropylmethyl-ethyl)-4-hydroxy-2-oxo-2H-pyran-3-yl]-methyl}-phenyl)-1H-imidazole-2-sulfonamide] | 87.1 | 92.7 | 102 | 110 | 117 | 108 | 0.7 nM | – | – | – | – | – | – | – | – | – |
| O=c1oc(C(CC2CC2)CC2CC2)cc(O)c1C(c1cccc(NS(=O)(=O)c2ccc3ccccc3n2)c1)C1CC1 (stereo not drawn) [Example 103, N-(3-{Cyclopropyl-[6-(2-cyclopropyl-1-cyclopropylmethyl-ethyl)-4-hydroxy-2-oxo-2H-pyran-3-yl]-methyl}-phenyl)-2-quinolinesulfonamide] | 65.5 | 82.6 | 96.9 | 100 | 105 | 96 | 1.72 nM | – | – | – | – | – | – | – | – | – |
| CCC(CCOCCOC)c1cc(O)c(C(c2cccc(NS(=O)(=O)c3ccc(C#N)cc3)c2)C2CC2)c(=O)o1 (stereo not drawn) [Example 106, 4-Cyano-N-(3-{cyclopropyl-[6-(1-ethyl-3-{2-methoxy-ethoxy}-propyl)-4-hydroxy-2-oxo-2H-pyran-3-yl]-methyl}-phenyl)-benzenesulfonamide] | 60.9 | 86.6 | 93.7 | 98.9 | 99 | 106 | 3.29 nM | – | – | – | – | – | – | – | – | – |
| CCC(CCNS(=O)(=O)c1cn(C)cn1)c1cc(O)c(C(c2cccc(NS(=O)(=O)c3cn(C)cn3)c2)C2CC2)c(=O)o1 (stereo not drawn) [Example 107, N-(3-{Cyclopropyl-[6-(1-ethyl-3-{1-methyl-1H-imidazole-4-sulfonylamino}-propyl)-4-hydroxy-2-oxo-2H-pyran-3-yl]-methyl}-phenyl)-1-methyl-1H-imidazole-4-sulfonamide] | 92.7 | 99.2 | 105 | 103 | 110 | 103 | 0.89 nM and 0.7 nM | – | – | – | – | – | – | – | – | – |
| CCC(CCBr)c1cc(O)c(C(c2cccc(NS(=O)(=O)c3cn(C)cn3)c2)C2CC2)c(=O)o1 (stereo not drawn) [Example 108, N-(3-{[6-(3-Bromo-1-ethyl-propyl)-4-hydroxy-2-oxo-2H-pyran-3-yl]-cyclopropyl-methyl}-phenyl)-1-methyl-1H-imidazole-4-sulfonamide] | 103 | 102 | 102 | – | 108 | 106 | 0.16 nM | – | – | – | – | – | – | – | – | 102 |
| CCC(CCNC(=O)CCCCCCC(=O)N(C)CCS(=O)(=O)O)c1cc(O)c(C(c2cccc(NS(=O)(=O)c3cn(C)cn3)c2)C2CC2)c(=O)o1 (stereo not drawn) [Example 110, 2-[[8-[[3-[3-[Cyclopropyl[3-[[(1-methyl-1H-imidazol-4-yl)sulfonyl]amino]phenyl]methyl]-4-hydroxy-2-oxo-2H-pyran-6-yl]pentyl]amino]-1,8-dioxooctyl]methylamino]-ethane sulfonic acid, monosodium salt] | 77.9 | 82.7 | 95.1 | 99.1 | 99.2 | 101 | 3.26 nM and 3.63 nM | – | – | – | – | – | – | – | – | – |
| CCC(Cc1ccccc1)c1cc(O)c(C(c2cccc(NS(=O)(=O)c3cn(C)cn3)c2)C2CC2)c(=O)o1 (stereo not drawn) [Example 136, N-(3-{Cyclopropyl-[6-(1-ethylphenethyl)-4-hydroxy-2-oxo-2H-pyran-3-yl]-methyl}-phenyl)-1-methyl-1H-imidazole-4-sulfonamide] | 71.7 | 85.7 | 99 | 101 | 102 | 102 | 1.32 nM | – | – | – | – | – | – | – | – | – |
